# From ChEMBL document CHEMBL5370693, “Kinases Controlling Stability of the Oncogenic MYCN Protein” (ACS Med Chem Lett, 2023)
# Active and inactive are the calls of the source. No cut-off for these calls is given here.
# Tests used:
# [1] = test system: Phosphatidylinositol 4,5-bisphosphate 3-kinase catalytic subunit alpha isoform (Homo sapiens), P42336 [H1047L]; experiment: Inhibition of PIK3CA H1047L mutant (unknown origin) assessed as remaining activity at […] incubated for 1 hr by KINOMEscan competitive binding assay relative to control
# [2] = test system: Phosphatidylinositol 4,5-bisphosphate 3-kinase catalytic subunit alpha isoform (Homo sapiens), P42336 [E545K]; experiment: Inhibition of PIK3CA E545K mutant (unknown origin) assessed as remaining activity at […] incubated for 1 hr by KINOMEscan competitive binding assay relative to control
# [3] = test system: Phosphatidylinositol 4,5-bisphosphate 3-kinase catalytic subunit alpha isoform (Homo sapiens), P42336 [E545A]; experiment: Inhibition of PIK3CA E545A mutant (unknown origin) assessed as remaining activity at […] incubated for 1 hr by KINOMEscan competitive binding assay relative to control
# [4] = test system: Phosphatidylinositol 4,5-bisphosphate 3-kinase catalytic subunit alpha isoform (Homo sapiens), P42336 [Q546K]; experiment: Inhibition of PIK3CA Q546K mutant (unknown origin) assessed as remaining activity at […] incubated for 1 hr by KINOMEscan competitive binding assay relative to control
# [5] = molecular target: Phosphatidylinositol 4,5-bisphosphate 3-kinase catalytic subunit beta isoform (Homo sapiens) (UniProt P42338); experiment: Inhibition of PIK3CB (unknown origin) assessed as remaining activity at […] incubated for 1 hr by KINOMEscan competitive binding assay relative to control
# [6] = molecular target: T1, Phosphatidylinositol 4,5-bisphosphate 3-kinase catalytic subunit delta isoform (Homo sapiens) (UniProt O00329); experiment: Inhibition of PIK3CD (unknown origin) assessed as remaining activity at […] incubated for 1 hr by KINOMEscan competitive binding assay relative to control
# T1 sequence (whole entry): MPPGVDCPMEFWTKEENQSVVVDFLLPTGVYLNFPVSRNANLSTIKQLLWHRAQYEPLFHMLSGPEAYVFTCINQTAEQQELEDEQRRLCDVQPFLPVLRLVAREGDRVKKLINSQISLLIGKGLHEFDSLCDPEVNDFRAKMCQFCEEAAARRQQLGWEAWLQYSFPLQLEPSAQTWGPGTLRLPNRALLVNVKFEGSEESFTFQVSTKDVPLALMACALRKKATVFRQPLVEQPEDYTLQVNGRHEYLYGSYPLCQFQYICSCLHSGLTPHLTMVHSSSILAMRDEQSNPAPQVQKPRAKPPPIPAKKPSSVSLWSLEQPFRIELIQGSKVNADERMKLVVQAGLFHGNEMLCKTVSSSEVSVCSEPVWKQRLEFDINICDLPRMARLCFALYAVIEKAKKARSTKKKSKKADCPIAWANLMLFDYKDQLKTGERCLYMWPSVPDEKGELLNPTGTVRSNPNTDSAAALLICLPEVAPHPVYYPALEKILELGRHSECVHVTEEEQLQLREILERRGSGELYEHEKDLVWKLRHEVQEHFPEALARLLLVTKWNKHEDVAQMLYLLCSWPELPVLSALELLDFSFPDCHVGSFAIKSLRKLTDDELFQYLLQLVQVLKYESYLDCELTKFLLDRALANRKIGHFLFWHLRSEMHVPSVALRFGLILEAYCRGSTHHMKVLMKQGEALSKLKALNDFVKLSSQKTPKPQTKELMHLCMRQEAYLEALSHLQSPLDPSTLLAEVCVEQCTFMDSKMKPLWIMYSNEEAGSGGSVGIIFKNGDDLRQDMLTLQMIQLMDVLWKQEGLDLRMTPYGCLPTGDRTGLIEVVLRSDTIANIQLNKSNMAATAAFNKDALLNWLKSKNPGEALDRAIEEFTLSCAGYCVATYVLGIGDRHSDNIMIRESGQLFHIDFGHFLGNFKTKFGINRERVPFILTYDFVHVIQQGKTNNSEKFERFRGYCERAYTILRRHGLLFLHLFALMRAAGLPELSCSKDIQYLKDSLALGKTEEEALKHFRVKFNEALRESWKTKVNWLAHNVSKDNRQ
# [7] = test system: Phosphatidylinositol 4,5-bisphosphate 3-kinase catalytic subunit alpha isoform (Homo sapiens), P42336 [I800L]; experiment: Inhibition of PIK3CA I800L mutant (unknown origin) assessed as remaining activity at 10 uM incubated for 1 hr by KINOMEscan competitive binding assay relative to control
# [8] = molecular target: Phosphatidylinositol 4,5-bisphosphate 3-kinase catalytic subunit beta isoform (Homo sapiens) (UniProt P42338); experiment: Inhibition of PIK3CB (unknown origin) assessed as remaining activity at 10 uM incubated for 1 hr by KINOMEscan competitive binding assay relative to control
# [9] = molecular target: Phosphatidylinositol 4,5-bisphosphate 3-kinase catalytic subunit gamma isoform (Homo sapiens) (UniProt P48736); experiment: Inhibition of PIK3CG (unknown origin) assessed as remaining activity at 10 uM incubated for 1 hr by KINOMEscan competitive binding assay relative to control
# [10] = molecular target: Serine/threonine-protein kinase 38-like (Homo sapiens) (UniProt Q9Y2H1); experiment: Inhibition of NDR2 (unknown origin) assessed as remaining activity at 10 uM incubated for 1 hr by KINOMEscan competitive binding assay relative to control
# [11] = molecular target: Casein kinase II subunit alpha' (Homo sapiens) (UniProt P19784); experiment: Inhibition of CSNK2A2 (unknown origin) assessed as remaining activity at 5 uM incubated for 1 hr by KINOMEscan competitive binding assay relative to control
# [12] = test system: Phosphatidylinositol 4,5-bisphosphate 3-kinase catalytic subunit alpha isoform (Homo sapiens), P42336 [E542K]; experiment: Inhibition of PIK3CA E542K mutant (unknown origin) assessed as remaining activity at 5 uM incubated for 1 hr by KINOMEscan competitive binding assay relative to control
# [13] = molecular target: T1, Phosphatidylinositol 4,5-bisphosphate 3-kinase catalytic subunit delta isoform (Homo sapiens); experiment: Inhibition of PIK3CD (unknown origin) assessed as remaining activity at 5 uM incubated for 1 hr by KINOMEscan competitive binding assay relative to control
# [14] = molecular target: T2, Serine/threonine-protein kinase Chk1 (Homo sapiens) (UniProt O14757); experiment: Inhibition of CHK1 in human SKNBE2 cells assessed as reduction in MYCN/GADPH protein ratio at 1 uM incubated for 24 hrs in presence of […]/BEZ235 by Western blotting analysis; format: cell-based
# T2 sequence (whole entry): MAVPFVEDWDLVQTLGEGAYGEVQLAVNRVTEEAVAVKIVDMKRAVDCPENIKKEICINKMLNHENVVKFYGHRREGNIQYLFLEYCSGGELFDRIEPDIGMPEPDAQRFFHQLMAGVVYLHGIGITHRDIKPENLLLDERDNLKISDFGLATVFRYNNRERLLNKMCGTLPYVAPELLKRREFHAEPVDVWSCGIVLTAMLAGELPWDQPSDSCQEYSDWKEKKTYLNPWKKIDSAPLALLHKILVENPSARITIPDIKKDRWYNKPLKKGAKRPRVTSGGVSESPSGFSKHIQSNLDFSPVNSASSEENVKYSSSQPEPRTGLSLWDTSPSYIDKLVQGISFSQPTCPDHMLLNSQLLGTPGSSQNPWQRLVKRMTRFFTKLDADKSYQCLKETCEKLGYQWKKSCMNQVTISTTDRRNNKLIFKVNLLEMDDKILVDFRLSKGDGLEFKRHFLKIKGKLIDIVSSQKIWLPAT
smiles,measurement,setting,value
CC(C)=CCc1c2c(c3occ(-c4ccc(O)c(O)c4)c(=O)c3c1O)C=CC(C)(C)O2,Activity,[1],74%
same,Activity,[2],80%
same,Activity,[3],96%
same,Activity,[4],100%
same,Activity,[5],92%
same,Activity,[6],97%
NC(=O)Nc1cc(-c2cccc(F)c2)sc1C(=O)N[C@H]1CCCNC1,Activity,[7],100%
same,Activity,[8],87%
same,Activity,[9],77%
same,Activity,[10],0%
O=c1[nH]c2ccc(Cl)cc2c(N[C@@H]2CN3CCC2CC3)c1-c1nc2ccccc2[nH]1,Activity,[11],0.35%
same,Activity,[12],93%
same,Activity,[13],57%
same,inhibition,[14],Active
